# Columns and labels:
# [1] = population pharmacokinetic (PopPK) modeling and simulation of the cenobamate effect on concomitant AED concentrations in subjects with partial onset seizures; assay type: in vivo, human; settings: cenobamate dose 100-400 mg/day
# Method: This study was carried out to make an assessment of the extent to which the adjunctive treatment with cenobamate may affect the recommended dosing of other AEDs. Population pharmacokinetics (PopPK) models describing how cenobamate exposure affects that of other commonly used AEDs (i.e., carbamazepine, lamotrigine, levetiracetam, oxcarbazepine, phenytoin and valproic acid) when given as adjunct therapy.
# Therapeutically effective amount for AEDs are different depending on the condition of subjects participated in the study. For carbamazepine, therapeutically effective amount was about 800 mg/day to about 1,200 mg/day for adults and children over 12 years of age. For lamotrigine, therapeutically effective amount was about 100 mg/day to about 500 mg/day, preferably about 100 mg/day to 200 mg/day, for adults and children over 12 years of age. For levetiracetam, therapeutically effective amount was about 3,000 mg/day for adults and children over 12 years of age. For phenytoin, therapeutically effective amount was about 300 mg/day to about 600 mg/day for adults. For valproic acid, therapeutically effective amount was about 60 mg/kg/day for adults.
# PopPk datasets were constructed from clinical databases for Cenobamate Study 1, Cenobamate Study 2 and Cenobamate Study 3. The dosing, exposure, covariate and AED concentration data were merged by subject, date, and time; formatted for PopPK analysis and saved in ASCII format using R software (Version 3.2.2, Comprehensive R Network, cran.r-project.org). All data programs were documented and archived in a locked on-line repository in order to maintain an audit trail. A quality control (QC) check of the data management procedure was conducted according to qPharmetra standard operating procedures (SOPs).
# Results from Cenobamate Study 1, Cenobamate Study 2 and Cenobamate Study 3 were included in the analyses. Each study is described in more detail in the subsequent sections.
# This is a multicenter, double-blind, randomized, adjunctive placebo-controlled trial with an open-label extension phase to evaluate the efficacy and safety of cenobamate in subjects with treatment resistant partial onset seizures. Subjects with partial onset seizures not fully controlled despite their treatment with 1 to 3 concomitant AEDs were included in this study. The study included an 8 week baseline period to assess seizure frequency. Only subjects who experienced at least 3 seizures/month during the baseline period with no 21-day seizure-free period were randomized in a 1:1 ratio to add-on placebo or cenobamate administered in an oral formulation once daily in the morning. Subjects then entered a 12-week double-blind treatment period, consisting of a 6-week titration phase followed by a 6-week maintenance phase. In maintenance phase, the dose was 200 mg/day. Blood samples were drawn at the baseline, predose at the start of the titration phase, and on days 15, 29, 43, 57 and 85 after the first dose during the double-blinded treatment period. These samples were analyzed for lamotrigine, levetiracetam, oxcarbazepine, carbamazepine, and valproic acid.
# This is a multicenter, double-blind, randomized, placebo-controlled dose-response study, with an 8-week prospective baseline and an 18-week double-blind treatment period. Subjects must have had least 8 partial seizures including only simple partial seizures with motor component, complex partial seizures, or secondarily generalized seizures without a seizure-free interval of greater than 25 days any time during the 8-week baseline despite their treatment with 1 to 3 AEDs. Subjects must have had at least 3 of these partial seizures during each of the two consecutive 4-week periods in the baseline period to be randomized to 100, 200 or 400 mg/day cenobamate or placebo (1:1:1:1 ratio) administered as a tablet formulation once daily in the morning. Subjects first entered a 6-week titration followed by a 12-week maintenance phase. […]
# [2] = open-label multiple dose PK drug-interaction studies of cenobamate co-administered with AEDs; assay type: in vivo, human
# Method: This study was carried out to assess the effect of cenobamate on the disposition of four AEDs (divalproex sodium, phenobarbital, phenytoin and carbamazepine) and the effect of four AEDs on the disposition of cenobamate. The details are described below.
# Five open-label, multiple dose, multiple period, 1 sequence, PK drug-interaction studies were conducted examining co-administration of cenobamate and each of the above-mentioned AEDs. Specifically, five studies were conducted, as follows:
# This is an open-label, multiple-dose, 1 sequence, 3 period pharmacokinetic drug interaction study between cenobamate and divalproex in normal volunteer subjects. Sixteen subjects were enrolled. All subjects were scheduled to undergo 3 treatment periods as a 1 sequence design: • Period 1 (Days 1 to 5): Single oral daily administration of 1000 mg divalproex (Treatment A). • Period 2 (Days 6 to 19): Co-administration of single oral daily administration of 1000 mg divalproex and 150 mg cenobamate (Treatments A and B). • Period 3 (Days 20 to 25): Single oral daily administration of 150 mg cenobamate (Treatment B). (Number of Subjects Planned: 16 Enrolled: 16 Analyzed: 16) Study 2—Phenobarbital
# This is an open-label, 1-arm, 2-treatment study. Sixteen (16) healthy, adult, non-tobacco using, male and female subjects were enrolled. Screening of subjects occurred within 28 days prior to the first dose. A total of 16 subjects were enrolled in the study, and 14 subjects completed the study. The PK dataset therefore included 16 subjects for phenobarbital alone and 14 subjects for the combination treatment. There were 16 subjects included in the safety analyses.
# Treatment A subjects received 30 mg phenobarbital TID on Days 1 to 7, followed by 90 mg phenobarbital QD in the morning on Days 8 to 21. All study drugs were administered orally with approximately 240 mL of water.
# Treatment B subjects received 90 mg phenobarbital QD in the morning from Days 22 to 56 co-administered with 50 mg cenobamate QD on Days 22 to 28, 100 mg cenobamate QD on Days 29 to 35, 150 mg cenobamate QD on Days 36 to 42, and 200 mg cenobamate QD on Days 43 to 56. All study drugs were administered orally with approximately 240 mL of water. The study duration was approximately 13 weeks from screening to end-of-study procedures. There was approximately 17 weeks from screening to attempted follow-up phone call. There was no washout. […]
# Blood samples were obtained prior to and following dosing at selected times through 24 hours postdose on selected days (Days 14, 28, and 70). Plasma samples were analyzed for phenytoin and cenobamate concentrations using validated analytical methods. Appropriate PK parameters were calculated for each treatment using non-compartmental methods. […]
# [3] = combination therapy with phenytoin vs cenobamate alone (FIG. 3)
# [4] = combination therapy with cenobamate vs AED alone (FIG. 2)
structure (smiles),measurement,setting,value
"NC(=O)N1c2ccccc2C=Cc2ccccc21 [Carbamazepine, carbamazepine]",Effect on AED Concentration (AUC): Reduction by,[1],Reduction by 11-34%
"Nc1nnc(-c2cccc(Cl)c2Cl)c(N)n1 [Lamotrigine, lamotrigine]",Effect on AED Concentration (AUC): Reduction by,[1],Reduction by 21-52%
"CC[C@@H](C(N)=O)N1CCCC1=O [Levetiracetam, levetiracetam]",Effect on AED Concentration (AUC): Reduction by,[1],Reduction by 4-13%
"NC(=O)N1c2ccccc2CC(=O)c2ccccc21 [Oxcarbazepine, oxcarbazepine]",Effect on AED Concentration (AUC): Increase by,[1],Increased by 10%
"O=C1NC(=O)C(c2ccccc2)(c2ccccc2)N1 [Phenytoin, phenytoin]",Effect on AED Concentration (AUC): Increase by,[1],Increase by 10-60%
"CCCC(CCC)C(=O)O [Valproic acid, valproic acid]",Effect on AED Concentration (AUC): Reduction by,[1],Reduction by 5-19%
"NC(=O)O[C@@H](Cn1ncnn1)c1ccccc1Cl [cenobamate, [(1R)-1-(2-chlorophenyl)-2-(tetrazol-2-yl)ethyl] carbamate]",plasma AUC for cenobamate,[2]; [3],decreased
same,plasma Cmax for cenobamate,[2]; [3],decreased
CCC1(c2ccccc2)C(=O)NC(=O)NC1=O [phenobarbital],plasma AUC of the AED,[2]; [4],increased
same,plasma Cmax of the AED,[2]; [4],increased

# Source: patent US12599585B2, “Use of [(1R)-1-(2-chlorophenyl)-2-(tetrazol-2-yl)ethyl] carbamate in combination therapy” (priority 2018, dated 2026)
